Values quoted from earlier work as cited in Sander's compilation of Henry's law constants (doi:10.1021/ci0256485).

Experiment: Henry solubility constant Hcp at 298.15 K (mol/(m3 Pa))
Conditions: reference: Delgado and Alderete (2003); cited value

Compound: Cc1nnc(-c2ccccc2)c(=O)n1N [metamitron]
- Henry solubility constant Hcp: 2.2e+06

Compound: CCNc1nc(NC(C)C)nc(SC)n1 [ametryn]
- Henry solubility constant Hcp: 4100
